Earlier results in patent US20190117669A1, “Methods for Treating NSAID-Induced Cardiovascular, Cerebrovascular, or Renovascular Adverse Events” (University of Utah Research Foundation, priority 2016, published 2019).

Key:
[1] = rats, all misoprostol-treated groups
[2] = dogs, misoprostol 3 mcg/kg every 8 hours for 8 days

Structure (SMILES): CCCCC(C)(O)C/C=C/[C@H]1[C@H](O)CC(=O)[C@@H]1CCCCCCC(=O)OC (mixture of isomers) [misoprostol]
- blood pressure [1]: increased
- azotemia, hyperphosphatemia and renal histopathologic changes versus gentamicin alone [2]: more severe azotemia, hyperphosphatemia, and renal histopathologic changes
